We go through 15 compounds from US20250163104A1, “MACROCYCLIC IMMUNOMODULATORS” (priority 2021, published 2025).

Where a SMILES comes first, the peptide text is derived from it. Bridges are numbered along the chain shown (N, C = ends). [ ]: non-standard residue; d: D form. The star is where a group is joined. Phe(4-COOH) = N[C@@H](Cc1ccc(C(=O)O)cc1)C(=O)O; Bip = N[C@@H](Cc1ccc(-c2ccccc2)cc1)C(=O)O; 4Pal = N[C@@H](Cc1ccncc1)C(=O)O; Carboxymethyl = O=C(O)C*; Orn = NCCC[C@H](N)C(=O)O; Dab = NCC[C@H](N)C(=O)O; Dap = NC[C@H](N)C(=O)O

T1 sequence (Q15116 25-288): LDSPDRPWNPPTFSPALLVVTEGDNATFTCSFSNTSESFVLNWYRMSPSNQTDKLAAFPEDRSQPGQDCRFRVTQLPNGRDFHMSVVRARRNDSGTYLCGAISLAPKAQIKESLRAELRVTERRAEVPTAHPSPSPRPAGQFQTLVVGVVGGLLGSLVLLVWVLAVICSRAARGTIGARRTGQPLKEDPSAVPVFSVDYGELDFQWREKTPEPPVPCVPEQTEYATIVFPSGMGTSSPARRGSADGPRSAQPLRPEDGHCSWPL

The first assay addresses T1, human PD-1 / PD-L1-Ig binding on Jurkat cell line over-expressing human PD-1 (Jurkat-PD-1) (Homo sapiens, UniProt Q15116).
T1 construct: expressed in transfected cells; host or cells: Jurkat
Nature of the assay: Jurkat-PD-1 Cell Binding High-Content Screening Assay (CBA). Format: cell-based. As to conditions: Jurkat HPD1_PDL1 IC50, Jurkat-PD-1 cells, PE-labeled PD-L1-Ig 20 nM final. A digest of the protocol:
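PE-PD-L1-Ig 20 nM final; cells in DMEM/10% FCS; cpd pre-incubation 2 h, 37° C; ligand 1 h; PFA fix + Hoechst 33342; high-content imaging read-out.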
Broadly, the IC50 is the concentration at which inhibition is half-maximal. The compound `CC(C)C[C@@H]1NC(=O)[C@H](Cc2c[nH]c3ccccc23)NC(=O)[C@H](CC(=O)O)NC(=O)[C@H](Cc2ccc(OCC(=O)O)cc2)NC(=O)[C@H](CN)NC(=O)CSC[C@@H](C(=O)NCC(N)=O)NC(=O)[C@H](CO)NC(=O)[C@H](C(C)C)NC(=O)[C@H](CC(C)C)NC(=O)[C@H](CC(N)=O)NC(=O)[C@@H](CC(C)C)NC(=O)[C@H](CCN)NC(=O)[C@H](C(C)C)NC(=O)[C@H](Cc2ccc(-c3ccccc3)cc2)NC1=O` [Compound 1280] ({CH2CO}-[Dap]Y(Carboxymethyl)DWL[Bip]V[Dab][dL]NLVSCG-NH2; thioether N-14) had an IC50 of 9.7 nM.

Still in this assay, the particulars now being: Jurkat-PD-1 cells, PE-labeled PD-L1-Ig 20 nM final; read-out: Jurkat HPD1_PDL1 IC50.
On to `CC(C)C[C@@H]1NC(=O)[C@H](Cc2c[nH]c3ccccc23)NC(=O)[C@H](CC(=O)O)NC(=O)[C@H](Cc2ccncc2)NC(=O)[C@H](CN)NC(=O)CSC[C@@H](C(=O)NCC(N)=O)NC(=O)[C@H](CO)NC(=O)[C@H](C(C)C)NC(=O)[C@H](CC(C)C)NC(=O)[C@H](CC(N)=O)NC(=O)[C@@H](CC(C)C)NC(=O)[C@H](CN)NC(=O)[C@H](C(C)C)NC(=O)[C@H](Cc2ccc(-c3ccccc3)cc2)NC1=O` [Compound 1277] ({CH2CO}-[Dap][4Pal]DWL[Bip]V[Dap][dL]NLVSCG-NH2; thioether N-14), for which the IC50 was 8.6 nM.
Still for that read-out and setting: the figure for `CC(C)C[C@@H]1NC(=O)[C@H](Cc2c[nH]c3ccccc23)NC(=O)[C@H](CC(=O)O)NC(=O)[C@H](Cc2ccncc2)NC(=O)[C@H](Cc2ccc(OCC(=O)O)cc2)NC(=O)CSC[C@@H](C(=O)NCC(N)=O)NC(=O)[C@H](CO)NC(=O)[C@H](C(C)C)NC(=O)[C@H](CC(C)C)NC(=O)[C@H](CC(N)=O)NC(=O)[C@@H](CC(C)C)NC(=O)[C@H](CN)NC(=O)[C@H](C(C)C)NC(=O)[C@H](Cc2ccc(-c3ccccc3)cc2)NC1=O` [Compound 1278] ({CH2CO}-Y(Carboxymethyl)[4Pal]DWL[Bip]V[Dap][dL]NLVSCG-NH2; thioether N-14) is 27.3 nM; for `CC(C)C[C@@H]1NC(=O)[C@H](Cc2c[nH]c3ccccc23)NC(=O)[C@H](CC(=O)O)NC(=O)[C@H](Cc2ccc(C(=O)O)cc2)NC(=O)[C@H](Cc2ccc(OCC(=O)O)cc2)NC(=O)CSC[C@@H](C(=O)NCC(N)=O)NC(=O)[C@H](CO)NC(=O)[C@H](C(C)C)NC(=O)[C@H](CC(C)C)NC(=O)[C@H](CC(N)=O)NC(=O)[C@@H](CC(C)C)NC(=O)[C@H](CCN)NC(=O)[C@H](C(C)C)NC(=O)[C@H](Cc2ccc(-c3ccccc3)cc2)NC1=O` [Compound 1279] ({CH2CO}-Y(Carboxymethyl)[Phe(4-COOH)]DWL[Bip]V[Dab][dL]NLVSCG-NH2; thioether N-14) it is 13.6 nM.
Still for that read-out and setting: the figure for `CC(C)C[C@@H]1NC(=O)[C@H](Cc2c[nH]c3ccccc23)NC(=O)[C@H](CC(=O)O)NC(=O)[C@H](Cc2ccncc2)NC(=O)[C@H](CN)NC(=O)CSC[C@@H](C(=O)NCC(N)=O)NC(=O)[C@H](CO)NC(=O)[C@H](C(C)C)NC(=O)[C@H](CC(C)C)NC(=O)[C@H](CC(N)=O)NC(=O)[C@@H](CC(C)C)NC(=O)[C@H](CCN)NC(=O)[C@H](C(C)C)NC(=O)[C@H](Cc2ccc(-c3ccccc3)cc2)NC1=O` [Compound 1281] ({CH2CO}-[Dap][4Pal]DWL[Bip]V[Dab][dL]NLVSCG-NH2; thioether N-14) is 8.9 nM; for `CC(C)C[C@@H]1NC(=O)[C@H](Cc2c[nH]c3ccccc23)NC(=O)[C@H](CC(=O)O)NC(=O)[C@H](Cc2ccncc2)NC(=O)[C@H](Cc2ccc(OCC(=O)O)cc2)NC(=O)CSC[C@@H](C(=O)NCC(N)=O)NC(=O)[C@H](CO)NC(=O)[C@H](C(C)C)NC(=O)[C@H](CC(C)C)NC(=O)[C@H](CC(N)=O)NC(=O)[C@@H](CC(C)C)NC(=O)[C@H](CCN)NC(=O)[C@H](C(C)C)NC(=O)[C@H](Cc2ccc(-c3ccccc3)cc2)NC1=O` [Compound 1282] ({CH2CO}-Y(Carboxymethyl)[4Pal]DWL[Bip]V[Dab][dL]NLVSCG-NH2; thioether N-14) it is 11.8 nM; for `CC(C)C[C@@H]1NC(=O)[C@H](Cc2c[nH]c3ccccc23)NC(=O)[C@H](CC(=O)O)NC(=O)[C@H](Cc2ccc(C(=O)O)cc2)NC(=O)[C@H](Cc2ccc(OCC(=O)O)cc2)NC(=O)CSC[C@@H](C(=O)NCC(N)=O)NC(=O)[C@H](CO)NC(=O)[C@H](C(C)C)NC(=O)[C@H](CC(C)C)NC(=O)[C@H](CC(N)=O)NC(=O)[C@@H](CC(C)C)NC(=O)[C@H](CCCN)NC(=O)[C@H](C(C)C)NC(=O)[C@H](Cc2ccc(-c3ccccc3)cc2)NC1=O` [Compound 1283] ({CH2CO}-Y(Carboxymethyl)[Phe(4-COOH)]DWL[Bip]V[Orn][dL]NLVSCG-NH2; thioether N-14) it is 24.5 nM.
Take `CC(C)C[C@@H]1NC(=O)[C@H](Cc2c[nH]c3ccccc23)NC(=O)[C@H](CC(=O)O)NC(=O)[C@H](Cc2ccncc2)NC(=O)[C@H](CN)NC(=O)CSC[C@@H](C(=O)NCC(N)=O)NC(=O)[C@H](CO)NC(=O)[C@H](C(C)C)NC(=O)[C@H](CC(C)C)NC(=O)[C@H](CC(N)=O)NC(=O)[C@@H](CC(C)C)NC(=O)[C@H](CCCN)NC(=O)[C@H](C(C)C)NC(=O)[C@H](Cc2ccc(-c3ccccc3)cc2)NC1=O` [Compound 1285] ({CH2CO}-[Dap][4Pal]DWL[Bip]V[Orn][dL]NLVSCG-NH2; thioether N-14): the half-inhibitory concentration (IC50) was found to be 42.6 nM.
For `CC(C)C[C@@H]1NC(=O)[C@H](Cc2c[nH]c3ccccc23)NC(=O)[C@H](CC(=O)O)NC(=O)[C@H](Cc2ccncc2)NC(=O)[C@H](Cc2ccc(OCC(=O)O)cc2)NC(=O)CSC[C@@H](C(=O)NCC(N)=O)NC(=O)[C@H](CO)NC(=O)[C@H](C(C)C)NC(=O)[C@H](CC(C)C)NC(=O)[C@H](CC(N)=O)NC(=O)[C@@H](CC(C)C)NC(=O)[C@H](CCCN)NC(=O)[C@H](C(C)C)NC(=O)[C@H](Cc2ccc(-c3ccccc3)cc2)NC1=O` [Compound 1286] ({CH2CO}-Y(Carboxymethyl)[4Pal]DWL[Bip]V[Orn][dL]NLVSCG-NH2; thioether N-14), the 50% inhibitory concentration (IC50) came to 50.3 nM.
As to `CC(C)C[C@@H]1NC(=O)[C@H](CC(N)=O)NC(=O)[C@@H](CC(C)C)NC(=O)[C@H](CN)NC(=O)[C@H](C(C)C)NC(=O)[C@H](Cc2ccc(-c3ccccc3)cc2)NC(=O)[C@H](C(C)C)NC(=O)[C@H](Cc2c[nH]c3ccccc23)NC(=O)[C@H](CC(=O)O)NC(=O)[C@H](Cc2ccc(C(=O)O)cc2)NC(=O)[C@H](Cc2ccc(OCC(=O)O)cc2)NC(=O)CSC[C@@H](C(=O)NCC(N)=O)NC(=O)[C@H](CO)NC(=O)[C@H](C(C)C)NC1=O` [Compound 1288] ({CH2CO}-Y(Carboxymethyl)[Phe(4-COOH)]DWV[Bip]V[Dap][dL]NLVSCG-NH2; thioether N-14), the 50% inhibitory concentration (IC50) worked out at 38.9 nM.
As for `CC(C)C[C@@H]1NC(=O)[C@H](CC(N)=O)NC(=O)[C@@H](CC(C)C)NC(=O)[C@H](CN)NC(=O)[C@H](C(C)C)NC(=O)[C@H](Cc2ccc(-c3ccccc3)cc2)NC(=O)[C@H](C(C)C)NC(=O)[C@H](Cc2c[nH]c3ccccc23)NC(=O)[C@H](CC(=O)O)NC(=O)[C@H](Cc2ccc(OCC(=O)O)cc2)NC(=O)[C@H](CN)NC(=O)CSC[C@@H](C(=O)NCC(N)=O)NC(=O)[C@H](CO)NC(=O)[C@H](C(C)C)NC1=O` [Compound 1289] ({CH2CO}-[Dap]Y(Carboxymethyl)DWV[Bip]V[Dap][dL]NLVSCG-NH2; thioether N-14), the IC50 was found to be 11 nM.
With `CC(C)C[C@@H]1NC(=O)[C@H](CC(N)=O)NC(=O)[C@@H](CC(C)C)NC(=O)[C@H](CN)NC(=O)[C@H](C(C)C)NC(=O)[C@H](Cc2ccc(-c3ccccc3)cc2)NC(=O)[C@H](C(C)C)NC(=O)[C@H](Cc2c[nH]c3ccccc23)NC(=O)[C@H](CC(=O)O)NC(=O)[C@H](Cc2ccncc2)NC(=O)[C@H](Cc2ccc(OCC(=O)O)cc2)NC(=O)CSC[C@@H](C(=O)NCC(N)=O)NC(=O)[C@H](CO)NC(=O)[C@H](C(C)C)NC1=O` [Compound 1290] ({CH2CO}-Y(Carboxymethyl)[4Pal]DWV[Bip]V[Dap][dL]NLVSCG-NH2; thioether N-14), the IC50 amounted to 50.6 nM.
Consider `CC(C)C[C@@H]1NC(=O)[C@H](Cc2c[nH]c3ccccc23)NC(=O)[C@H](CC(=O)O)NC(=O)[C@H](Cc2ccc(OCC(=O)O)cc2)NC(=O)[C@H](Cc2ccc(OCC(=O)O)cc2)NC(=O)CSC[C@@H](C(=O)NCC(N)=O)NC(=O)[C@H](CO)NC(=O)[C@H](C(C)C)NC(=O)[C@H](CC(C)C)NC(=O)[C@H](CC(N)=O)NC(=O)[C@@H](CC(C)C)NC(=O)[C@H](CN)NC(=O)[C@H](C(C)C)NC(=O)[C@H](Cc2ccc(-c3ccccc3)cc2)NC1=O` [Compound 1291] ({CH2CO}-Y(Carboxymethyl)Y(Carboxymethyl)DWL[Bip]V[Dap][dL]NLVSCG-NH2; thioether N-14), for which the IC50 was found to be 12.1 nM.
With `CC(C)C[C@@H]1NC(=O)[C@H](CC(N)=O)NC(=O)[C@@H](CC(C)C)NC(=O)[C@H](CN)NC(=O)[C@H](C(C)C)NC(=O)[C@H](Cc2ccc(-c3ccccc3)cc2)NC(=O)[C@H](C(C)C)NC(=O)[C@H](Cc2c[nH]c3ccccc23)NC(=O)[C@H](CC(=O)O)NC(=O)[C@H](Cc2ccc(OCC(=O)O)cc2)NC(=O)[C@H](Cc2ccc(OCC(=O)O)cc2)NC(=O)CSC[C@@H](C(=O)NCC(N)=O)NC(=O)[C@H](CO)NC(=O)[C@H](C(C)C)NC1=O` [Compound 1292] ({CH2CO}-Y(Carboxymethyl)Y(Carboxymethyl)DWV[Bip]V[Dap][dL]NLVSCG-NH2; thioether N-14), the IC50 came out at 7.2 nM.
For the compound `CC(C)C[C@@H]1NC(=O)[C@H](CC(N)=O)NC(=O)[C@@H](CC(C)C)NC(=O)[C@H](CN)NC(=O)[C@H](C(C)C)NC(=O)[C@H](Cc2ccc(-c3ccccc3)cc2)NC(=O)[C@H](C(C)C)NC(=O)[C@H](Cc2c[nH]c3ccccc23)NC(=O)[C@H](CC(=O)O)NC(=O)[C@H](Cc2ccncc2)NC(=O)[C@H](CN)NC(=O)CSC[C@@H](C(=O)NCC(N)=O)NC(=O)[C@H](CO)NC(=O)[C@H](C(C)C)NC1=O` [Compound 1293] ({CH2CO}-[Dap][4Pal]DWV[Bip]V[Dap][dL]NLVSCG-NH2; thioether N-14), the half-inhibitory concentration (IC50) amounted to 10.6 nM.
